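Test compounds were applied to cells in 96-well plates for 48 hours at 5 doses. Abbreviation: GI50, concentration required for 50% inhibition of growth. TGI denotes the concentration required for complete inhibition of growth.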
Tests used:
Experiment in all cases: growth of human tumour cells (NCI), 48 h
786-0 renal = tested on: 786-0 renal
A498 renal = tested on: A498 renal
A549 NSCLC = tested on: A549 NSCLC
ACHN renal = tested on: ACHN renal
BT-549 breast = tested on: BT-549 breast
CAKI-1 renal = tested on: CAKI-1 renal
CCRF-CEM leukemia = tested on: CCRF-CEM leukemia
COLO 205 colon = tested on: COLO 205 colon
DU-145 prostate = tested on: DU-145 prostate
EKVX NSCLC = tested on: EKVX NSCLC
HCT-116 colon = tested on: HCT-116 colon
HCT-15 colon = tested on: HCT-15 colon
HL-60(TB) leukemia = tested on: HL-60(TB) leukemia
HOP-62 NSCLC = tested on: HOP-62 NSCLC
HOP-92 NSCLC = tested on: HOP-92 NSCLC
HS 578T breast = tested on: HS 578T breast
HT29 colon = tested on: HT29 colon
IGROV1 ovarian = tested on: IGROV1 ovarian
K-562 leukemia = tested on: K-562 leukemia
KM12 colon = tested on: KM12 colon
LOX IMVI melanoma = tested on: LOX IMVI melanoma
M14 melanoma = tested on: M14 melanoma
MALME-3M melanoma = tested on: MALME-3M melanoma
MCF7 breast = tested on: MCF7 breast
MDA-MB-231 breast = tested on: MDA-MB-231 breast
MDA-MB-435 = tested on: MDA-MB-435
MOLT-4 leukemia = tested on: MOLT-4 leukemia
NCI-H23 lung = tested on: NCI-H23 lung
NCI-H460 lung = tested on: NCI-H460 lung
NCI-H522 lung = tested on: NCI-H522 lung
NCI/ADR-RES ovarian = tested on: NCI/ADR-RES ovarian
OVCAR-3 ovarian = tested on: OVCAR-3 ovarian
OVCAR-4 ovarian = tested on: OVCAR-4 ovarian
OVCAR-5 ovarian = tested on: OVCAR-5 ovarian
OVCAR-8 ovarian = tested on: OVCAR-8 ovarian
PC-3 prostate = tested on: PC-3 prostate
RPMI-8226 leukemia = tested on: RPMI-8226 leukemia
RXF 393 renal = tested on: RXF 393 renal
SF-268 CNS = tested on: SF-268 CNS
SF-295 CNS = tested on: SF-295 CNS
SK-MEL-2 melanoma = tested on: SK-MEL-2 melanoma
SK-MEL-28 melanoma = tested on: SK-MEL-28 melanoma
SK-MEL-5 melanoma = tested on: SK-MEL-5 melanoma
SK-OV-3 ovarian = tested on: SK-OV-3 ovarian
SN12C renal = tested on: SN12C renal
SNB-19 CNS = tested on: SNB-19 CNS
SNB-75 CNS = tested on: SNB-75 CNS
SW-620 colon = tested on: SW-620 colon
T-47D breast = tested on: T-47D breast
TK-10 renal = tested on: TK-10 renal
U251 CNS = tested on: U251 CNS
UACC-257 melanoma = tested on: UACC-257 melanoma
UACC-62 melanoma = tested on: UACC-62 melanoma
UO-31 renal = tested on: UO-31 renal
HCC-2998 colon = tested on: HCC-2998 colon
NCI-H226 lung = tested on: NCI-H226 lung
SF-539 CNS = tested on: SF-539 CNS

Cc1cc(C)nc(SCC(=O)OC2CC(C)CCC2C(C)C)n1 (centres undefined)
TGI (786-0 renal): 42.6 µM
TGI (A498 renal): 47.2 µM
TGI (A549 NSCLC): 63.4 µM
TGI (ACHN renal): 38.6 µM
TGI (BT-549 breast): 79.9 µM
TGI (CAKI-1 renal): 48.6 µM
TGI (CCRF-CEM leukemia): 42.5 µM
TGI (COLO 205 colon): 31 µM
TGI (DU-145 prostate): > 100 µM
TGI (EKVX NSCLC): 39.3 µM
TGI (HCT-116 colon): 47 µM
TGI (HCT-15 colon): 43.8 µM
TGI (HL-60(TB) leukemia): 44.2 µM
TGI (HOP-62 NSCLC): 27.2 µM
TGI (HOP-92 NSCLC): 67.1 µM
TGI (HS 578T breast): > 100 µM
TGI (HT29 colon): 39.9 µM
TGI (IGROV1 ovarian): 65.6 µM
TGI (K-562 leukemia): 52.2 µM
TGI (KM12 colon): 42.7 µM
TGI (LOX IMVI melanoma): 37.5 µM
TGI (M14 melanoma): 37 µM
TGI (MALME-3M melanoma): 41.1 µM
TGI (MCF7 breast): 50.7 µM
TGI (MDA-MB-231 breast): 49.7 µM
TGI (MDA-MB-435): 58.3 µM
TGI (MOLT-4 leukemia): 38.6 µM
TGI (NCI-H23 lung): > 100 µM
TGI (NCI-H460 lung): 35.8 µM
TGI (NCI-H522 lung): 46 µM
TGI (NCI/ADR-RES ovarian): 50.7 µM
TGI (OVCAR-3 ovarian): 28.5 µM
TGI (OVCAR-4 ovarian): 50.6 µM
TGI (OVCAR-5 ovarian): 47.9 µM
TGI (OVCAR-8 ovarian): > 100 µM
TGI (PC-3 prostate): 69.5 µM
TGI (RPMI-8226 leukemia): 41.3 µM
TGI (RXF 393 renal): 32 µM
TGI (SF-268 CNS): > 100 µM
TGI (SF-295 CNS): 31.6 µM
TGI (SK-MEL-2 melanoma): 41.9 µM
TGI (SK-MEL-28 melanoma): > 100 µM
TGI (SK-MEL-5 melanoma): 29 µM
TGI (SK-OV-3 ovarian): > 100 µM
TGI (SN12C renal): 37.2 µM
TGI (SNB-19 CNS): 45.9 µM
TGI (SNB-75 CNS): 65.8 µM
TGI (SW-620 colon): 52.3 µM
TGI (T-47D breast): 54.2 µM
TGI (TK-10 renal): 89.9 µM
TGI (U251 CNS): 53.8 µM
TGI (UACC-257 melanoma): 41.7 µM
TGI (UACC-62 melanoma): 33.9 µM
TGI (UO-31 renal): 33.7 µM

Clc1nc(Cl)c2c3c(sc2n1)CCCC3
GI50 (786-0 renal): 5.17 µM
TGI (786-0 renal): > 100 µM
GI50 (A498 renal): > 100 µM
TGI (A498 renal): > 100 µM
GI50 (A549 NSCLC): > 24.4 µM
TGI (A549 NSCLC): > 100 µM
GI50 (ACHN renal): 5.27 µM
TGI (ACHN renal): > 100 µM
GI50 (BT-549 breast): 3.63 µM
TGI (BT-549 breast): > 100 µM
GI50 (CAKI-1 renal): > 100 µM
TGI (CAKI-1 renal): > 100 µM
GI50 (CCRF-CEM leukemia): 17.1 µM
TGI (CCRF-CEM leukemia): > 100 µM
GI50 (COLO 205 colon): 2750 nM
TGI (COLO 205 colon): > 22.6 µM
GI50 (DU-145 prostate): 3.71 µM
TGI (DU-145 prostate): > 100 µM
GI50 (EKVX NSCLC): > 100 µM
TGI (EKVX NSCLC): > 100 µM
GI50 (HCC-2998 colon): > 28.9 µM
TGI (HCC-2998 colon): > 100 µM
GI50 (HCT-116 colon): 3.95 µM
TGI (HCT-116 colon): > 100 µM
GI50 (HCT-15 colon): 4.07 µM
TGI (HCT-15 colon): > 100 µM
GI50 (HL-60(TB) leukemia): > 27.4 µM
TGI (HL-60(TB) leukemia): > 100 µM
GI50 (HOP-62 NSCLC): > 100 µM
TGI (HOP-62 NSCLC): > 100 µM
GI50 (HOP-92 NSCLC): 3.88 µM
TGI (HOP-92 NSCLC): > 100 µM
TGI (HS 578T breast): > 100 µM
GI50 (HT29 colon): 3.67 µM
TGI (HT29 colon): > 100 µM
GI50 (IGROV1 ovarian): 3.85 µM
TGI (IGROV1 ovarian): > 100 µM
GI50 (K-562 leukemia): 3.77 µM
TGI (K-562 leukemia): > 100 µM
GI50 (KM12 colon): > 100 µM
TGI (KM12 colon): > 100 µM
GI50 (LOX IMVI melanoma): 1780 nM
TGI (LOX IMVI melanoma): > 100 µM
GI50 (M14 melanoma): 4.49 µM
TGI (M14 melanoma): > 100 µM
GI50 (MALME-3M melanoma): > 100 µM
TGI (MALME-3M melanoma): > 100 µM
GI50 (MCF7 breast): 3.56 µM
TGI (MCF7 breast): > 100 µM
GI50 (MDA-MB-435): 3.65 µM
TGI (MDA-MB-435): > 100 µM
GI50 (MOLT-4 leukemia): 3.61 µM
TGI (MOLT-4 leukemia): > 100 µM
GI50 (NCI-H226 lung): 2540 nM
TGI (NCI-H226 lung): > 28.8 µM
GI50 (NCI-H23 lung): 5.92 µM
TGI (NCI-H23 lung): > 100 µM
GI50 (NCI-H460 lung): > 100 µM
TGI (NCI-H460 lung): > 100 µM
GI50 (NCI-H522 lung): 1640 nM
TGI (NCI-H522 lung): > 26 µM
GI50 (NCI/ADR-RES ovarian): 5.29 µM
TGI (NCI/ADR-RES ovarian): > 100 µM
GI50 (OVCAR-3 ovarian): 3.3 µM
TGI (OVCAR-3 ovarian): > 30.4 µM
GI50 (OVCAR-4 ovarian): 5.5 µM
TGI (OVCAR-4 ovarian): > 100 µM
GI50 (OVCAR-5 ovarian): > 100000 nM
TGI (OVCAR-5 ovarian): > 100 µM
GI50 (OVCAR-8 ovarian): 4.38 µM
TGI (OVCAR-8 ovarian): > 100 µM
GI50 (RXF 393 renal): 4.06 µM
TGI (RXF 393 renal): > 100 µM
GI50 (SF-268 CNS): 4.37 µM
TGI (SF-268 CNS): > 100 µM
GI50 (SF-295 CNS): > 100 µM
TGI (SF-295 CNS): > 100 µM
GI50 (SF-539 CNS): > 100 µM
TGI (SF-539 CNS): > 100 µM
TGI (SK-MEL-2 melanoma): > 59.7 µM
GI50 (SK-MEL-28 melanoma): 6.97 µM
TGI (SK-MEL-28 melanoma): > 100 µM
GI50 (SK-OV-3 ovarian): > 100 µM
TGI (SK-OV-3 ovarian): > 100 µM
GI50 (SN12C renal): 3.26 µM
TGI (SN12C renal): > 100 µM
GI50 (SNB-19 CNS): > 100 µM
TGI (SNB-19 CNS): > 100 µM
GI50 (SNB-75 CNS): > 100 µM
TGI (SNB-75 CNS): > 100 µM
GI50 (SW-620 colon): 5.37 µM
TGI (SW-620 colon): > 100 µM
GI50 (T-47D breast): > 22.1 µM
TGI (T-47D breast): > 100 µM
GI50 (TK-10 renal): 5.34 µM
TGI (TK-10 renal): > 100 µM
GI50 (U251 CNS): > 20 µM
TGI (U251 CNS): > 100 µM
GI50 (UACC-257 melanoma): > 26.1 µM
TGI (UACC-257 melanoma): > 100 µM
GI50 (UACC-62 melanoma): > 100 µM
TGI (UACC-62 melanoma): > 100 µM
TGI (UO-31 renal): > 100 µM

C#CC[C@@H]1C[C@]2(C)[C@H]3CC=C4[C@H]5[C@@H](C)[C@H](C)CC[C@]5(C(=O)NCCCN5CCN(CCCN)CC5)CC[C@@]4(C)[C@]3(C)CC[C@H]2C(C)(C)[C@H]1OC(C)=O
GI50 (OVCAR-5 ovarian): 1610 nM
TGI (OVCAR-5 ovarian): 3.02 µM

From PubChem BioAssay (NCI)
